doi:10.1101/2023.12.04.569845, “Identification of 4-(6-((2-methoxyphenyl)amino)pyrazin-2-yl)benzoic acids as CSNK2A inhibitors with antiviral activity and improved selectivity over PIM3” (bioRxiv, 2023)
Where two headings read alike, the source gives them in different places.

What was measured:
Test in all cases: biochemical
Parameters in all cases: Thermal shift (DSF, SYPRO Orange) Tm shift of recombinant kinase domains at 10 uM compound
NQO2 = target: T1, NQO2 (Homo sapiens, UniProt P16083)
T1 sequence (P16083 1-231): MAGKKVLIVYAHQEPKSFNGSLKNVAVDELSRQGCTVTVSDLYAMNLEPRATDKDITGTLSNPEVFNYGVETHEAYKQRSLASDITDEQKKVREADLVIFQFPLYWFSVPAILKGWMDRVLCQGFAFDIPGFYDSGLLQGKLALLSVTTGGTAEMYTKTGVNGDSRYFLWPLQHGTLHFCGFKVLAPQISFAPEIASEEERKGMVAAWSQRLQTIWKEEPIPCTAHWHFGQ

TLK1 = target: T2, TLK1 (Homo sapiens, UniProt Q9UKI8)
T2 sequence (Q9UKI8 1-766): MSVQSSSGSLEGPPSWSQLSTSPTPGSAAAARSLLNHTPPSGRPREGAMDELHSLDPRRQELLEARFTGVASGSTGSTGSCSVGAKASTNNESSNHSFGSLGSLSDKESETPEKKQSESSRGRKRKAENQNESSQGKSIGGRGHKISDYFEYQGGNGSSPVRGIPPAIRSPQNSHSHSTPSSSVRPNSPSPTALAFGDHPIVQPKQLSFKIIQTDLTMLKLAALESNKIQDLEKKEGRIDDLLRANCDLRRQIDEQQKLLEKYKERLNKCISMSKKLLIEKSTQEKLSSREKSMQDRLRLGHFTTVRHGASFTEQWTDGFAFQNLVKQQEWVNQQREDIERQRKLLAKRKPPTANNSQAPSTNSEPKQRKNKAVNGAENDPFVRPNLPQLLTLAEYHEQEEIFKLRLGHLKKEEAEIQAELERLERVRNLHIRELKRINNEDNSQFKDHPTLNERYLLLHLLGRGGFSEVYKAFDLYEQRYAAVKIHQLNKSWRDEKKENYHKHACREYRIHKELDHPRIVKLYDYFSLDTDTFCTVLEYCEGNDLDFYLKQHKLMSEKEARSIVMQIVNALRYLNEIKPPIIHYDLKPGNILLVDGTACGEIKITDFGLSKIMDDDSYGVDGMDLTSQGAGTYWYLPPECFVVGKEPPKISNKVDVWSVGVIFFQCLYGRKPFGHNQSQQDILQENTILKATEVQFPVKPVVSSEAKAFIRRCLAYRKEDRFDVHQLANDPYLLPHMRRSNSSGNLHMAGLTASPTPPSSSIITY

EphA2 = EphA2 (Homo sapiens, UniProt P29317)
EPHB3 = target: T3, EPHB3 (Homo sapiens, UniProt P54753)
T3 sequence (P54753 1-998): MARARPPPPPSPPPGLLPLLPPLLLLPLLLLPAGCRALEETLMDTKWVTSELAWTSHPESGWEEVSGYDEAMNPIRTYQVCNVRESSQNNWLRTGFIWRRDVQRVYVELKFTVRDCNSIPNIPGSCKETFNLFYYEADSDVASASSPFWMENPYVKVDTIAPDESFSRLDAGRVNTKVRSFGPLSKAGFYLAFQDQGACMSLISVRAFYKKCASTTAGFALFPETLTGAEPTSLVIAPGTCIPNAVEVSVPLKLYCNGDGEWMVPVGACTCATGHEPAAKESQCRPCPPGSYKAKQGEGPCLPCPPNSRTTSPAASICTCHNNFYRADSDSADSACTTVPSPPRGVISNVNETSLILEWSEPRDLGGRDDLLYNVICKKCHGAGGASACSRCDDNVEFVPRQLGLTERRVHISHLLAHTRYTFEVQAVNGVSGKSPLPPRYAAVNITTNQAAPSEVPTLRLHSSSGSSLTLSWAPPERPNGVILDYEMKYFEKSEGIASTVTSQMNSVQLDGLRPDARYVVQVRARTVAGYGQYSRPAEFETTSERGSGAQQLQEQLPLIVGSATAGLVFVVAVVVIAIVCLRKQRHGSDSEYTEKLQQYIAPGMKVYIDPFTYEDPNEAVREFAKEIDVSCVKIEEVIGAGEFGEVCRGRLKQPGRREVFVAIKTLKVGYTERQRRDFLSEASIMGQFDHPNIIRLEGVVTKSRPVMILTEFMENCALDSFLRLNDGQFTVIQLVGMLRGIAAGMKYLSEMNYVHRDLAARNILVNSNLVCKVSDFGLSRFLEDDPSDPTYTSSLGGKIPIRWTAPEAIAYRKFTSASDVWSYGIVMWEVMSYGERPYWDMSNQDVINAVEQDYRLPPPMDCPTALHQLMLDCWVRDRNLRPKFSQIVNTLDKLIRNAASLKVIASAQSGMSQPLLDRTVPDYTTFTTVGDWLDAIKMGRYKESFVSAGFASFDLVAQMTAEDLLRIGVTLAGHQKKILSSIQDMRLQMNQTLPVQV

MAP2K6 = target: T4, MAP2K6 (Homo sapiens, UniProt P52564)
T4 sequence (P52564 1-334): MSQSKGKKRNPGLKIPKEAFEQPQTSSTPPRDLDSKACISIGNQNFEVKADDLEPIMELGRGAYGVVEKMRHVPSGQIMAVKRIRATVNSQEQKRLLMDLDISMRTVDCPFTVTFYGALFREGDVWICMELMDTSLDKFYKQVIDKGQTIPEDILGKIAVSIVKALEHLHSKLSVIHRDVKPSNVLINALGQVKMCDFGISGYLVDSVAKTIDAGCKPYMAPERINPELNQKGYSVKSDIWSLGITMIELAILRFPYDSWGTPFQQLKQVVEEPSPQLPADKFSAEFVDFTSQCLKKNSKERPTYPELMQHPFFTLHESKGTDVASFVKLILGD

CAMK1D = CAMK1D (Homo sapiens, UniProt Q8IU85)
CLK3 = CLK3 (Homo sapiens, UniProt P49761)
Sequence of CLK3 (P49761 whole entry): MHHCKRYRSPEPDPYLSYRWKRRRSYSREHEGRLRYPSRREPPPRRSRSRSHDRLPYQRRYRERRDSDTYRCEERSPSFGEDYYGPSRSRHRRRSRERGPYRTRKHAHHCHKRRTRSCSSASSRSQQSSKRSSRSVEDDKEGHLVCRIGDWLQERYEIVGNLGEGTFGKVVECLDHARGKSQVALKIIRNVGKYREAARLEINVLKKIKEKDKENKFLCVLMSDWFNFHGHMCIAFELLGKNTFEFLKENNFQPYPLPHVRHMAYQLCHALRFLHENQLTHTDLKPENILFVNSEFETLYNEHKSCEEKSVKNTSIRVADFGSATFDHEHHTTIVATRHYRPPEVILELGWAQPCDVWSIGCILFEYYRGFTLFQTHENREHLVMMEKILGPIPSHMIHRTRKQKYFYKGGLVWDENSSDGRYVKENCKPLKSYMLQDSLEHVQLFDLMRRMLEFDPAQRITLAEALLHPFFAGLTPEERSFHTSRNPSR

Sequence of EphA2 (P29317 whole entry): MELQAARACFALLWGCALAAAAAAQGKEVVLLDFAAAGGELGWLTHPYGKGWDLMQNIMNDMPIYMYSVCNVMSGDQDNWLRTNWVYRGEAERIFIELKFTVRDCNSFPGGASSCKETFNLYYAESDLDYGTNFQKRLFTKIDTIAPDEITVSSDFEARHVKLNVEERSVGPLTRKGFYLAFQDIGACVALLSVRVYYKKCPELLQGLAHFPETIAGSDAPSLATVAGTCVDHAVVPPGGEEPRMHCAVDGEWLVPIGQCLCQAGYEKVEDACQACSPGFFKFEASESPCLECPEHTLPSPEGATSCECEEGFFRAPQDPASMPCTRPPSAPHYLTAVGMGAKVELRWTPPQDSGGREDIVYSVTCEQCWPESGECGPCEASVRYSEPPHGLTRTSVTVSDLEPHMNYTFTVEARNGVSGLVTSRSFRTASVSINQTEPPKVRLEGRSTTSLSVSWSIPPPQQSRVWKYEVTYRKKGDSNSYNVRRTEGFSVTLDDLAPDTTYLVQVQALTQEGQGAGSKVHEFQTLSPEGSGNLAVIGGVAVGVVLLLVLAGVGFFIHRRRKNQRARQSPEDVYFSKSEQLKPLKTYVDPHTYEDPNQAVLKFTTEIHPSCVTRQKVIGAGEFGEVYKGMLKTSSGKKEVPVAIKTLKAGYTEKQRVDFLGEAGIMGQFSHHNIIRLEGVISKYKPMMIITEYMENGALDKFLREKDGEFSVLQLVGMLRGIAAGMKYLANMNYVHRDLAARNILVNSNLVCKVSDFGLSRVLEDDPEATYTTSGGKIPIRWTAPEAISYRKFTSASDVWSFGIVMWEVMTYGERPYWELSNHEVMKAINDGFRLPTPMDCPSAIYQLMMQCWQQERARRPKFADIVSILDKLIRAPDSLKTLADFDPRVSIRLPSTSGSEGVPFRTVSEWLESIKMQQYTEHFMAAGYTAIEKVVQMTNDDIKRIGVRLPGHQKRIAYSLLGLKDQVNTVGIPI
Sequence of CAMK1D (Q8IU85 whole entry): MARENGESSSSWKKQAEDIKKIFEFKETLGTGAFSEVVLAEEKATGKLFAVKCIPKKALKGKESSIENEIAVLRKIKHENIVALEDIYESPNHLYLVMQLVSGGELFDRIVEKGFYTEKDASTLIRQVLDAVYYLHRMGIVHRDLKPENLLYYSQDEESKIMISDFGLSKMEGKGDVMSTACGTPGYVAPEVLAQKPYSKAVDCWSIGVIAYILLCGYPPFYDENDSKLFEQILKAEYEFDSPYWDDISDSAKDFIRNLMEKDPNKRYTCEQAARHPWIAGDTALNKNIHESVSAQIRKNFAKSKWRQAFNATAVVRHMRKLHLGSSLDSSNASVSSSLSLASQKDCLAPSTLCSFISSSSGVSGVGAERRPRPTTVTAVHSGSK

CC(C)Nc1ccc2cnn(-c3cncc(-c4ccc(C(=O)O)cc4)n3)c2c1 [compound 2, 2]
ΔTm at 10 µM (NQO2; read-out: 2): -1 °C | ΔTm at 10 µM (TLK1; read-out: 2): 1 °C | ΔTm at 10 µM (EphA2; read-out: 2): 1 °C | ΔTm at 10 µM (EPHB3; read-out: 2): 0 °C | ΔTm at 10 µM (MAP2K6; read-out: 2): 2 °C | ΔTm at 10 µM (CAMK1D; read-out: 2): 2 °C | ΔTm at 10 µM (CLK3; read-out: 2): 8 °C

COc1ccc(OC(C)C)cc1Nc1cncc(-c2ccc(C(=O)O)cc2)n1 [7c]
ΔTm at 10 µM (NQO2; read-out: 7c): -1 °C | ΔTm at 10 µM (TLK1; read-out: 7c): -1 °C | ΔTm at 10 µM (EphA2; read-out: 7c): 1 °C | ΔTm at 10 µM (EPHB3; read-out: 7c): -1 °C | ΔTm at 10 µM (MAP2K6; read-out: 7c): 0 °C | ΔTm at 10 µM (CAMK1D; read-out: 7c): 0 °C | ΔTm at 10 µM (CLK3; read-out: 7c): 7 °C

CC(C)Oc1ccc2ccn(-c3cncc(-c4ccc(C(=O)O)cc4)n3)c2c1 [6c]
ΔTm at 10 µM (NQO2; read-out: 6c): -1 °C | ΔTm at 10 µM (TLK1; read-out: 6c): -1 °C | ΔTm at 10 µM (EphA2; read-out: 6c): 3 °C | ΔTm at 10 µM (EPHB3; read-out: 6c): 1 °C | ΔTm at 10 µM (MAP2K6; read-out: 6c): 3 °C | ΔTm at 10 µM (CAMK1D; read-out: 6c): 0 °C | ΔTm at 10 µM (CLK3; read-out: 6c): 8 °C
